Reference: US20100173888A1 (Pfizer Inc, priority 2008, published 2010)
Where a name gives a salt, the structure may show the parent alone.

Molecular target: human recombinant H-PGDS (Homo sapiens, UniProt O60760)
Test: Fluorescence intensity h-PGDS TBA enzyme assay (PGH2 depletion, MDA/TBA fluorescence)
Assay type: biochemical
Settings: 1:175,000 human recombinant H-PGDS, 42 second reaction, 3-fold serial dilutions, highest concentration typically 1 μM
Description: Fluoresecence Intensity h-PGDSTBA Enzyme Assay
Prostaglandin D Synthase (PGDS) converts the substrate prostaglandin H2 (PGH2) to prostaglandin D2. The depletion of PGH2 was measured via an Fe(II) reduction of the remaining PGH2 to malondialdehyde (MDA) and 12-HHT. The enzyme assay is based on the quantitative formation of a fluorescent complex from the non-fluorescent compounds MDA and 2-thiobarbituric acid (TBA), substantially as described in U.S. patent application publication US-2004/152148 by Lombardt.
The enzyme assay (31 μls) contained 100 mM Tris base pH 8.0, 100 μM MgCl2, 0.1 mg/ml IgG Rabbit serum, 5.0 μM PGH2 (Cayman; ethanol solution, #17020), 2.5 mM L-Glutathione (Sigma; reduced form. #G4251), 1:175,000 human recombinant H-PGDS (from 1 mg/ml), 0.5% DMSO and inhibitor (varying concentration). Three μls of diluted inhibitor (dissolved in DMSO) was plated into a 384-well assay plate followed by a 25 μl addition of an enzyme solution containing h-PGDS, Tris, MgCl2, IgG and L-Glutathione. After preincubation of inhibitor and enzyme solution for 10 minutes at room temperature, the reaction was initiated with a 3 μl addition of substrate solution in 10 mM HCl. The reaction was terminated after 42 second by the addition (3 μl) of stop buffer containing FeCl2 and citric acid. After addition of 45.5 μls of TBA plates were heated for one hour in a 70° C. oven. Plates were cooled at room temperature overnight and read on a plate reader the next day with excitation @ 530 nm and emission @ 565 nm.
IC50' s of inhibitors were calculated with a 4-parameter fit using 11 inhibitor concentrations in duplicate with 3-fold serial dilutions. Controls on each plate included no inhibitor (zero % effect) and an inhibitor 10-fold in excess of its' IC50 (100% effect). The highest inhibitor concentration tested was typically 1 μM.

Sequence of human recombinant H-PGDS (O60760 whole entry): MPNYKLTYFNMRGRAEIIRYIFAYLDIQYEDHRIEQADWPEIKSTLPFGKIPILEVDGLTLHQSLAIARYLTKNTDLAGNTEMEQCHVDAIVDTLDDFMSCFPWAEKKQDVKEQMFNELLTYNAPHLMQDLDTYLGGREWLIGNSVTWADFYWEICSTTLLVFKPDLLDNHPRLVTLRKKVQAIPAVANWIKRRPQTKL

CC[C@H](O)C(=O)N[C@H]1CC[C@H](NC(=O)c2ccc(-c3cccc(F)c3)nc2)CC1 [Example 113L, 6-(3-fluorophenyl)-N-(trans-4-{[(2S)-2-hydroxybutanoyl]amino}cyclohexyl)nicotinamide] and C[C@H](O)C(=O)N[C@H]1CC[C@H](NC(=O)c2ccc(-c3cccc(F)c3)nc2)CC1 [Example 144, 6-(3-Fluorophenyl)-N-(trans-4-{[(2S)-2-hydroxypropanoyl]amino}cyclohexyl)nicotinamide] are within 1.5-fold of each other in IC50: 6.1 nM for the first, 7.5 nM for the second.

Going from Cc1ccnn1CC(=O)N[C@H]1CC[C@H](NC(=O)c2ccc(-c3cccc(F)c3)nc2)CC1 [Example 113M, 6-(3-fluorophenyl)-N-(trans-4-{[(5-methyl-1H-pyrazol-1-yl)acetyl]amino}cyclohexyl)nicotinamide] to NCC(=O)N[C@H]1CC[C@H](NC(=O)c2ccc(-c3cccc(F)c3)nc2)CC1 [Example 146, 6-(3-Fluorophenyl)-N-[trans-4-(glycylamino)cyclohexyl]nicotinamide], the IC50 rises from 7.6 nM to 21 nM (2.8-fold).

COCC(=O)N[C@H]1CC[C@H](NC(=O)c2ccc(-c3cccc(F)c3)nc2)CC1 [Example 113N, 6-(3-fluorophenyl)-N-{trans-4-[(methoxyacetyl)amino]cyclohexyl}nicotinamide] and CN(C)CC(=O)N[C@H]1CC[C@H](NC(=O)c2ccc(-c3cccc(F)c3)nc2)CC1 [Example 145, N-{trans-4-[(N,N-Dimethylglycyl)amino]cyclohexyl}-6-(3-fluorophenyl)nicotinamide] are within 1.5-fold of each other in IC50: 11.5 nM for the first, 11.6 nM for the second.

First: O=CN[C@H]1CC[C@H](NC(=O)c2ccc(-c3cccc(F)c3)nc2)CC1 [Example 113O, 6-(3-fluorophenyl)-N-(trans-4-formamidocyclohexyl)nicotinamide]
Second: N[C@H]1CC[C@H](NC(=O)c2ccc(-c3cccc(F)c3)nc2)CC1 [Example 142B, N-(trans-4-Aminocyclohexyl)-6-(3-fluorophenyl)nicotinamide]
The IC50 of the first is 2.2-fold lower: 7.3 nM for the first, 16.4 nM for the second. The first is the more potent here.

Going from CC(=O)NC(C)(C)[C@H]1CC[C@H](NC(=O)c2ccc(-c3cccc(F)c3)nc2)CC1 [Example 113P, N-[trans-4-(1-acetamido-1-methylethyl)cyclohexyl]-6-(3-fluorophenyl)nicotinamide] to CC(=O)NC(C)[C@H]1CC[C@H](NC(=O)c2ccc(-c3cccc(F)c3)nc2)CC1 (stereo partly drawn) [Example 147, N-[trans-4-(1-Acetamidoethyl]cyclohexyl]-6-(3-fluorophenyl)nicotinamide], the IC50 falls from 9.1 nM to 5.7 nM (1.6-fold).

C[C@@H](N)C(=O)N[C@H]1CC[C@H](NC(=O)c2ccc(-c3cccc(F)c3)nc2)CC1 [Example 113Q, N-[trans-4-(D-alanylamino)cyclohexyl]-6-(3-fluorophenyl)nicotinamide] and C[C@H](N)C(=O)N[C@H]1CC[C@H](NC(=O)c2ccc(-c3cccc(F)c3)nc2)CC1 [Example 113R, N-[trans-4-(L-alanylamino)cyclohexyl]-6-(3-fluorophenyl)nicotinamide] are within 1.5-fold of each other in IC50: 9.7 nM for the first, 13.8 nM for the second.

Compared with O=C(N[C@H]1CC[C@H](CO)CC1)c1cnc(-c2cccc(F)c2)c(Cl)c1 [Example 114, 5-Chloro-6-(3-fluorophenyl)-N-[trans-4-(hydroxymethyl)cyclohexyl]nicotinamide], N[C@H]1CC[C@@H](NC(=O)c2ccc(-c3cccc(F)c3)nc2)CC1 [Example 155, N-(cis-4-Aminocyclohexyl)-6-(3-fluorophenyl)nicotinamide] is 22-fold higher in IC50: 4.41 nM for the first, 97.8 nM for the second. The first is the more potent here.

First: O=C(NC1CCC(F)(F)CC1)c1ccc(-c2cccc(F)c2)nc1 [Example 119, N-(4,4-Difluorocyclohexyl)-6-(3-fluorophenyl)nicotinamide]
Second: O=C(N[C@@H]1CC[C@@H](O)C1)c1ccc(-c2cccc(F)c2)nc1 [Example 130A, 6-(3-fluorophenyl)-N-[(1R,3R)-3-hydroxycyclopentyl]nicotinamide]
The IC50 of the first is 41-fold lower: 1.28 nM for the first, 52.3 nM for the second. The first is the more potent here.

First: O=C(NC1CCCc2ccccc21)c1ccc(-c2ccccc2)nc1 (stereo not drawn) [Example 120, 6-Phenyl-N-(1,2,3,4-tetrahydronaphthalen-1-yl)nicotinamide]
Second: O=C(NC1CCCc2ccccc21)c1ccc(-c2cccc(F)c2)nc1 (stereo not drawn) [Example 122, 6-(3-Fluorophenyl)-N-(1,2,3,4-tetrahydronaphthalen-1-yl)nicotinamide]
The IC50 of the first is 2.4-fold lower: 1.77 nM for the first, 4.16 nM for the second.

Compared with COc1cccc(-c2ccc(C(=O)NC3CCCc4ccccc43)cn2)c1 (stereo not drawn) [Example 121, 6-(3-Methoxyphenyl)-N-(1,2,3,4-tetrahydronaphthalen-1-yl)nicotinamide], O=C(NC1CCCc2ccccc21)c1ccc(-c2ccc(F)cc2)nc1 (stereo not drawn) [Example 123, 6-(4-Fluorophenyl)-N-(1,2,3,4-tetrahydronaphthalen-1-yl)nicotinamide] is 2.9-fold lower in IC50: 88 nM for the first, 30 nM for the second. The second is the more potent here.

Compared with O=C(NC1CCCc2ccccc21)c1ccc(-c2cc(F)cc(F)c2)nc1 (stereo not drawn) [Example 124, 6-(3,5-Difluorophenyl)-N-(1,2,3,4-tetrahydronaphthalen-1-yl)nicotinamide], CC(C)n1ncc2c1CCCC2NC(=O)c1ccc(-c2cccc(F)c2)nc1 (stereo not drawn) [Example 129, 6-(3-Fluorophenyl)-N-(1-isopropyl-4,5,6,7-tetrahydro-1H-indazol-4-yl)nicotinamide] is 8.5-fold higher in IC50: 22.7 nM for the first, 194 nM for the second.

Compared with O=C(NC12CC(C1)C2)c1ccc(-c2cccc(F)c2)nc1 [Example 125, N-Bicyclo[1.1.1]pent-1-yl-6-(3-fluorophenyl)nicotinamide], CC(C)(O)[C@@H]1CC[C@H](NC(=O)c2ccc(-c3cccc(F)c3)nc2)C1 [Example 162, 6-(3-fluorophenyl)-N-[(1S,3R)-3-(1-hydroxy-1-methylethyl)cyclopentyl]nicotinamide] is 3.4-fold higher in IC50: 6.66 nM for the first, 22.7 nM for the second.

Going from CC(C)(O)C(=O)N[C@H]1CC[C@H](NC(=O)c2ccc(-c3cccc(F)c3)nc2)CC1 [Example 143, 6-(3-Fluorophenyl)-N-{trans-4-[(2-hydroxy-2-methylpropanoyl)amino]cyclohexyl}nicotinamide] to CC(C)(O)C[C@H]1CC[C@H](NC(=O)c2ccc(-c3cccc(F)c3)nc2)CC1 [Example 152, 6-(3-Fluorophenyl)-N-[4-(trans 2-hydroxy-2-methylpropyl)cyclohexyl]nicotinamide], the IC50 falls from 7.2 nM to 2.2 nM (3.3-fold).

CS(=O)(=O)NC[C@H]1CC[C@H](NC(=O)c2ccc(-c3cccc(F)c3)nc2)CC1 [Example 150, 6-(3-Fluorophenyl)-N-[trans 4(methanesulfonylaminomethyl)cyclohexyl]nicotinamide] and O=C(N[C@H]1CC[C@@H](C(=O)NC2CC2)C1)c1ccc(-c2cccc(F)c2)nc1 [Example 160, N-[(1S,3R)-3-(cyclopropylcarbamoyl)cyclopentyl]-6-(3-fluorophenyl)nicotinamide] are within 1.5-fold of each other in IC50: 8.9 nM for the first, 11.2 nM for the second.

O=C(NC1CCC(O)(CN2CCCCC2)CC1)c1ccc(-c2cccc(F)c2)nc1 (stereo not drawn) [Example 153, 6-(3-Fluorophenyl)-N-(4-hydroxy-piperidin-1-ylmethylcyclohexyl)nicotinamide] and O=C(N[C@H]1CC[C@@H](C(=O)N2CCN(CCO)CC2)C1)c1ccc(-c2cccc(F)c2)nc1 [Example 156, 6-(3-fluorophenyl)-N-[(1S,3R)-3-{[4-(2-hydroxyethyl)piperazin-1-yl]carbonyl}cyclopentyl]nicotinamide] are within 1.5-fold of each other in IC50: 13.2 nM for the first, 11.5 nM for the second.

Compared with NCCC(O)C1CCC(NC(=O)c2ccc(-c3cccc(F)c3)nc2)CC1 (stereo not drawn) [Example 154, N-[4-(3-Amino-1-hydroxypropyl)cyclohexyl]6-(3-fluorophenyl)nicotinamide hydrochloride], C[C@H](CO)NC(=O)[C@@H]1CC[C@H](NC(=O)c2ccc(-c3cccc(F)c3)nc2)C1 [Example 164, 6-(3-Fluorophenyl)-N-{(1S,3R)-3-[(2-hydroxy-1-methylethyl)carbamoyl]cyclopentyl}nicotinamide] is 2.5-fold lower in IC50: 40.3 nM for the first, 16.1 nM for the second.

CCN(C)C(=O)[C@@H]1CC[C@H](NC(=O)c2ccc(-c3cccc(F)c3)nc2)C1 [Example 157, N-{(1S,3R)-3-[ethyl(methyl)carbamoyl]cyclopentyl}-6-(3-fluorophenyl)nicotinamide] and CN(C)C(=O)[C@@H]1CC[C@H](NC(=O)c2ccc(-c3cccc(F)c3)nc2)C1 [Example 163, N-[(1S,3R)-3-(Dimethylcarbamoyl)cyclopentyl]-6-(3-fluorophenyl)nicotinamide] are within 1.5-fold of each other in IC50: 5.8 nM for the first, 6.1 nM for the second.

O=C(N[C@H]1CC[C@@H](C(=O)N2CC[C@H](F)C2)C1)c1ccc(-c2cccc(F)c2)nc1 [Example 159, 6-(3-fluorophenyl)-N-[(1S,3R)-3-{[(3S)-3-fluoropyrrolidin-1-yl]carbonyl}cyclopentyl]nicotinamide] and O=C(N[C@H]1CC[C@@H](C(=O)N2CC[C@@H](F)C2)C1)c1ccc(-c2cccc(F)c2)nc1 [Example 161, 6-(3-fluorophenyl)-N-[(1S,3R)-3-{[(3R)-3-fluoropyrrolidin-1-yl]carbonyl}cyclopentyl]nicotinamide] are within 1.5-fold of each other in IC50: 4.9 nM for the first, 4.1 nM for the second.
